Literature values, collected in patent publication US10634592B2, “Process for microextraction and detection of an analyte” (KING FAHD UNIVERSITY OF PETROLEUM AND MINERALS, priority 2015, dated 2020).

System: not given
Conditions: octanol-water partition coefficient

Going from `BrC(Br)Br` [TBM, tribromomethane] to `ClC(Br)Br` [DBCM, dibromochloromethane], the “log Kow” value falls from 2.38 to 2.08.

`ClC(Cl)Cl` [TCM, trichloromethane] and `ClC(Cl)Br` [BDCM, bromodichloromethane] are within 0.2 log units of each other in “log Kow” value: 1.97 for the first, 1.88 for the second.

First: CC(=O)C(Cl)Cl [DCP, 1,1-dichloro-2-propanone]
Second: CC(=O)C(Cl)(Cl)Cl [TCP, 1,1,1-trichloro-2-propanone]
The “log Kow” value of the first is lower: 0.20 for the first, 1.12 for the second.

System: cellular glutathione levels
Conditions: prior to cytotoxic effects

In the case of `CC(=O)C(Cl)Cl` [DCP, 1,1-dichloro-2-propanone], the “Effect on cellular glutathione levels” value is given as “reduce cellular glutathione levels”.
